# In ChEMBL document CHEMBL6103583, “Purified Monascus Pigments: Biological Activities and Mechanisms of Action” (J Nat Prod, 2025):
# Tests used:
# [1] = system: Penicillium citrinum; test: Antifungal activity against Penicillium citrinum KCCM 11663 assessed as reduction in […] incubated for 12 hrs by micro-dilution method; assay type: functional
# [2] = system: Klebsiella aerogenes; test: Antibacterial activity against Enterobacter aerogenes KCCM 12177 assessed as reduction in bacterial growth incubated for 12 hrs by broth micro-dilution method; assay type: functional
# [3] = system: Candida albicans; test: Antifungal activity against Candida albicans KCCM 10231 assessed as reduction in […] incubated for 12 hrs by micro-dilution method; assay type: functional
# [4] = system: Penicillium digitatum; test: Antifungal activity against Penicillium digitatum KCCM 60140 assessed as reduction in […] incubated for 12 hrs by micro-dilution method; assay type: functional
# [5] = system: Haemophilus influenzae; test: Antibacterial activity against Haemophilus influenzae KCCM 11903 assessed as reduction in bacterial growth incubated for 12 hrs by broth micro-dilution method; assay type: functional
# [6] = system: Staphylococcus aureus; test: Antibacterial activity against Staphylococcus aureus KCCM 11817 assessed as reduction in bacterial growth incubated for 12 hrs by broth micro-dilution method; assay type: functional
# [7] = system: Shigella sonnei; test: Antibacterial activity against Shigella sonnei KCCM 40253 assessed as reduction in bacterial growth incubated for 12 hrs by micro-dilution method; assay type: functional
# [8] = system: Enterococcus faecalis; test: Antibacterial activity against Enterococcus faecalis KCCM 11814 assessed as reduction in bacterial growth incubated for 12 hrs by broth micro-dilution method; assay type: functional
# [9] = system: Bacillus subtilis; test: Antibacterial activity against Bacillus subtilis KCCM 11316 assessed as reduction in bacterial growth incubated for 12 hrs by broth micro-dilution method; assay type: functional
# [10] = system: Pseudomonas aeruginosa; test: Antibacterial activity against Pseudomonas aeruginosa KCCM 11328 assessed as reduction in bacterial growth incubated for 12 hrs by micro-dilution method; assay type: functional
# [11] = system: Aspergillus niger; test: Antifungal activity against Aspergillus niger KCCM 11239 assessed as reduction in […] incubated for 12 hrs by micro-dilution method; assay type: functional
# [12] = system: Proteus vulgaris; test: Antibacterial activity against Proteus vulgaris KCCM 11906 assessed as reduction in bacterial growth incubated for 12 hrs by broth micro-dilution method; assay type: functional
# [13] = Antibacterial activity against Salmonella choleraesuis KCCM 11806 assessed as reduction in bacterial growth; assay type: functional, Salmonella enterica subsp. enterica serovar Choleraesuis; conditions: Salmonella enterica
# [14] = system: Staphylococcus aureus; test: Antibacterial activity against Staphylococcus aureus […] assessed as reduction in bacterial growth incubated for 12 hrs by broth micro-dilution method; assay type: functional
# [15] = system: Salmonella typhimurium; test: Antibacterial activity against Salmonella Typhimurium KCCM 11806 assessed as reduction in bacterial growth incubated for 12 hrs by micro-dilution method; assay type: functional, Salmonella enterica subsp. enterica serovar Typhimurium; conditions: Salmonella enterica
# [16] = system: HEp-2; test: Antiproliferative activity against human HEp-2 cells assessed as reduction in cell growth incubated for 3 days by MTT assay; assay type: functional, cell-based; conditions: HEp-2, 72 h
# [17] = system: WiDr; test: Antiproliferative activity against human WiDr cells assessed as reduction in cell growth incubated for 3 days by MTT assay; assay type: functional, cell-based; conditions: 72 h
# [18] = system: Escherichia coli; test: Antibacterial activity against Escherichia coli KCCM 11234 assessed as reduction in bacterial growth incubated; assay type: functional
# [19] = system: Escherichia coli; test: Antibacterial activity against Escherichia coli assessed as reduction in bacterial growth by broth microdilution method; assay type: functional
# [20] = system: Escherichia coli; test: Antibacterial activity against Escherichia coli KCCM 11234 assessed as reduction in bacterial growth incubated for 12 hrs by broth micro-dilution method; assay type: functional
# [21] = system: RAW264.7; test: Antiinflammatory activity against mouse RAW264.7 cells assessed as inhibition of LPS-NO production incubated for 24 hrs by Griess reagent based assay; assay type: functional, cell-based; conditions: RAW264.7, 24 h
# [22] = system: HEp-2; test: Antiproliferative activity against human HEp-2 cells assessed as reduction in cell viability incubated for 72 hrs by MTT assay; assay type: functional, cell-based; conditions: HEp-2, 72 h
# [23] = system: WiDr; test: Antiproliferative activity against human WiDr cells assessed as reduction in cell viability incubated for 72 hrs by MTT assay; assay type: functional, cell-based
# [24] = system: AGS; test: Antiproliferative activity against human AGS cells assessed as reduction in cell viability incubated for 24 hrs by MTT assay; assay type: functional, cell-based
# [25] = system: HeLa; test: Antiproliferative activity against human HeLa cells assessed as reduction in cell viability incubated for 24 hrs under light irradiation by MTT assay; assay type: functional, cell-based; conditions: light or radiation study
# [26] = system: HepG2; test: Antiproliferative activity against human HepG2 cells assessed as reduction in cell viability incubated for 24 hrs by MTT assay; assay type: functional, cell-based; conditions: HepG2, 24 h
# [27] = system: BGC-823; test: Antiproliferative activity against human BGC-823 cells assessed as reduction in cell viability incubated for 24 hrs by MTT assay; assay type: functional, cell-based; conditions: BGC-823, 24 h
# [28] = system: HT-29; test: Antiproliferative activity against human HT-29 cells assessed as reduction in cell viability incubated for 24 hrs by MTT assay; assay type: functional, cell-based; conditions: HT-29, 24 h
# [29] = system: SH-SY5Y; test: Antiproliferative activity against human SH-SY5Y cells assessed as reduction in cell viability incubated for 24 hrs by MTT assay; assay type: functional, cell-based
# [30] = system: HeLa; test: Antiproliferative activity against human HeLa cells assessed as reduction in cell viability incubated for 24 hrs by MTT assay; assay type: functional, cell-based
# [31] = system: MKN-45; test: Antiproliferative activity against human MKN-45 cells assessed as reduction in cell viability incubated for 24 hrs by MTT assay; assay type: functional, cell-based; conditions: MKN-45, 24 h
# [32] = system: RAW264.7; test: Antiinflammatory activity against mouse RAW264.7 cells assessed as inhibition of LPS-NO production by Griess reagent based assay; assay type: functional, cell-based
# [33] = system: LNCaP; test: Antiproliferative activity against human LNCaP cells assessed as reduction in cell viability incubated for 48 hrs by MTT assay; assay type: functional, cell-based
# [34] = system: PC-3; test: Antiproliferative activity against human PC-3 cells assessed as reduction in cell viability incubated for 48 hrs by MTT assay; assay type: functional, cell-based; conditions: PC-3, 48 h
smiles,measurement,setting,value
N[C@@H](Cc1ccc(O)cc1)C(=O)O [TYROSINE],MIC,[1],8 µg/mL
same,MIC,[2],4 µg/mL
same,MIC,[3],8 µg/mL
same,MIC,[4],32 µg/mL
same,MIC,[5],32 µg/mL
same,MIC,[6],8 µg/mL
same,MIC,[7],32 µg/mL
same,MIC,[8],8 µg/mL
same,MIC,[9],4 µg/mL
same,MIC,[10],8 µg/mL
same,MIC,[11],4 µg/mL
same,MIC,[12],32 µg/mL
same,MIC,[13],8 µg/mL
same,MIC,[14],8 µg/mL
same,MIC,[15],16 µg/mL
CCCCCC(=O)C[C@@H]1CC(CC(=O)CCC)=C(C)C(=O)[C@]1(C)O,IC50,[16],124 µM
same,IC50,[17],142 µM
N[C@@H](Cc1ccccc1)C(=O)O [PHENYLALANINE],MIC,[1],8 µg/mL
same,MIC,[18],8 µg/mL
same,MIC,[19],16 µg/mL
same,MIC,[20],8 µg/mL
same,MIC,[2],16 µg/mL
same,MIC,[3],8 µg/mL
same,MIC,[4],16 µg/mL
same,MIC,[5],16 µg/mL
same,MIC,[6],16 µg/mL
same,MIC,[7],16 µg/mL
same,MIC,[8],4 µg/mL
same,MIC,[9],8 µg/mL
same,MIC,[10],8 µg/mL
same,MIC,[11],8 µg/mL
same,MIC,[12],16 µg/mL
same,MIC,[13],8 µg/mL
same,MIC,[14],8 µg/mL
same,MIC,[15],4 µg/mL
C/C=C/C1=CC2=CC3=C(C(=O)CCCCCCC)C(=O)O[C@@]3(C)[C@@](O)(CC(C)=O)C2=CO1,IC50,[21],2.72 µM
same,IC50,[22],8.7 µM
same,IC50,[23],11 µM
C/C=C/C1=CC2=CC3=C(C(=O)CCCCC)C(=O)O[C@@]3(C)C(=O)C2=CO1,IC50,[21],21.2 µM
same,IC50,[24],7.98 µM
same,IC50,[25],24 µM
same,IC50,[26],44.2 µM
same,IC50,[27],12.6 µM
same,IC50,[28],36.7 µM
same,IC50,[29],30.9 µM
same,IC50,[30],93.7 µM
same,IC50,[31],14.3 µM
same,IC50,[22],107 µM
same,IC50,[23],109 µM
C/C=C/C1=CC2=CC3=C(C(=O)CCCCCCC)C(=O)O[C@@]3(C)[C@@H](O)C2=CO1,IC50,[21],0.99 µM
same,IC50,[22],9.8 µM
same,IC50,[23],8.6 µM
N[C@H](Cc1ccccc1)C(=O)O [D-PHENYLALANINE],MIC,[1],8 µg/mL
same,MIC,[18],8 µg/mL
same,MIC,[20],8 µg/mL
same,MIC,[2],16 µg/mL
same,MIC,[3],8 µg/mL
same,MIC,[4],16 µg/mL
same,MIC,[5],16 µg/mL
same,MIC,[6],16 µg/mL
same,MIC,[7],16 µg/mL
same,MIC,[8],8 µg/mL
same,MIC,[9],8 µg/mL
same,MIC,[10],16 µg/mL
same,MIC,[11],8 µg/mL
same,MIC,[12],16 µg/mL
same,MIC,[13],4 µg/mL
same,MIC,[14],8 µg/mL
same,MIC,[15],8 µg/mL
C/C=C/C1=CC2=C(CO1)C(=O)[C@](C)(O)[C@@H](CC(=O)CCCCCCC)C2,IC50,[16],21 µM
same,IC50,[17],55.8 µM
same,IC50,[32],19.7 µM
C/C=C/c1cc2c(cn1)C(=O)[C@](C)(O)[C@@H](CC(=O)CCCCCCC)C2,IC50,[21],74.7 µM
C/C=C/C1=CC2=C(CO1)C(=O)[C@](C)(O)[C@@H](CC(=O)CCCCC)C2,IC50,[16],77.6 µM
same,IC50,[17],55.3 µM
same,IC50,[32],22.6 µM
C/C=C/C1=CC2=CC3=C(C(=O)CCCCC)C(=O)O[C@@]3(C)[C@@](O)(CC(C)=O)C2=CO1,IC50,[21],1.7 µM
same,IC50,[22],10.4 µM
same,IC50,[23],10.5 µM
CCCCCCCCCC(=O)[C@H]1C(=O)O[C@]2(C)C(=O)C=C3C=C(CC(C)OC(C)=O)OC=C3[C@H]12 (some centres undefined),IC50,[21],16.6 µM
C/C=C/C1=CC2=C(CO1)C(=O)[C@]1(C)OC(=O)[C@H](C(O)CCCCC)[C@H]1C2 (some centres undefined),IC50,[33],45 µM
same,IC50,[34],47 µM
C/C=C/C1=CC2=CC3=C(C(=O)CCCCC)C(=O)OC3(C)C(=O)C2=CN1CCO (centres undefined),IC50,[21],27.5 µM
N[C@@H](CS)C(=O)O [CYSTEINE],MIC,[1],32 µg/mL
same,MIC,[18],64 µg/mL
same,MIC,[20],64 µg/mL
same,MIC,[2],8 µg/mL
same,MIC,[3],16 µg/mL
same,MIC,[4],32 µg/mL
same,MIC,[5],8 µg/mL
same,MIC,[6],16 µg/mL
same,MIC,[7],16 µg/mL
same,MIC,[8],4 µg/mL
same,MIC,[9],32 µg/mL
same,MIC,[10],16 µg/mL
same,MIC,[11],8 µg/mL
same,MIC,[12],8 µg/mL
same,MIC,[13],16 µg/mL
same,MIC,[14],16 µg/mL
same,MIC,[15],8 µg/mL
C/C=C/C1=CC2=CC3=C(C(=O)CCCCC)C(=O)O[C@@]3(C)[C@@H](O)C2=CO1,IC50,[21],3.65 µM
same,IC50,[22],14.8 µM
same,IC50,[23],15.7 µM
N[C@H](Cc1ccc(O)cc1)C(=O)O,MIC,[1],4 µg/mL
same,MIC,[2],16 µg/mL
same,MIC,[3],16 µg/mL
same,MIC,[4],32 µg/mL
same,MIC,[5],16 µg/mL
same,MIC,[6],16 µg/mL
same,MIC,[7],8 µg/mL
same,MIC,[8],4 µg/mL
same,MIC,[9],4 µg/mL
same,MIC,[10],16 µg/mL
same,MIC,[11],4 µg/mL
same,MIC,[12],16 µg/mL
same,MIC,[13],4 µg/mL
same,MIC,[14],8 µg/mL
same,MIC,[15],4 µg/mL
C/C=C/C1=CC2=CC3=C(C(=O)CCCCCCC)C(=O)O[C@@]3(C)C(=O)C2=CO1,IC50,[21],> 39.2 µM
same,IC50,[22],55.9 µM
same,IC50,[23],54.1 µM
C/C=C/C1=CC2=C/C(=C(/C#N)C(=O)CCCCC)C(C)(O)C(=O)C2=CO1 (centres undefined),IC50,[21],2.6 µM
C/C=C/c1cc2c(cn1)C(=O)[C@](C)(O)[C@@H](CC(=O)CCCCC)C2,IC50,[21],57.1 µM
C/C=C/C1=CC2=CC3=C(C(=O)CCCCC)C(=O)OC3(C)C(=O)C2=CN1 (centres undefined),IC50,[21],12.5 µM
